A short description of series [1]: Effect on final osmolarity of culture medium (vapour pressure osmometer). Type of series: physicochemical. As to conditions: up to 10 mM; results not shown. As for the experimental part:
(§1) 500 mOsm and exposure time (16 h) to be the most informative under which to observe hyperosmolality induced cellular responses of HCLE (results not shown). Thus, in the present study, a hyperosmotic medium of 500 mOsm and exposure time of 16 h were used throughout. Hyperosmolar media were prepared by the addition of NaCl to the medium. Medium osmolarity was measured using a Vapro 5520 vapour pressure osmometer (Wescor, Logan, Utah). Subconfluent cells were exposed to hyperosmolar media in the presence or absence of betaine (5 or 10 mM). Mitochondrial and proliferation activities for cell viability; TNF-α production; caspase activity and Annexin V/PI staining for apoptosis; and cellular shrinkage were monitored as detailed below.

In series [2] the test system is HCLE cells. The series can be described thus: Flow cytometry cell volume (shrunken cells) under hyperosmotic stress. It counts as cell-based, human. As to conditions: 16 h; for population of shrunken cells: 500 mOsm + 10 mM, flow cytometry. An excerpt: Forward scatter of the laser light produced by the flow cytometer is proportional to the volume of the cell. This principle was used to analyse the osmoprotective effect of betaine in restoring the cell volume which is adversely affected due to hypertonicity. Cell populations were gated such that the population of cells showing a greater forward scatter (FSC) constituted the percentage of cells with a volume equal to that of a cell under isotonic conditions. On the other hand, the proportion of side scatter in a flow cytometer represents the cell structure complexity and granularity. […] Cells were exposed to isotonic media (300 mOsM), hyperosmotic media (500 mOsM) and hyperosmotic media containing betaine (500 mOsM media+10 mM betaine) for 16 h after which they were analysed using flow cytometer.
(§2) Cell volume and Live/Dead staining via flow cytometry were performed using the Attune® Acoustic focusing Cytometer (Life Technologies™ Applied Biosystems). Annexin V and PI kit (Invitrogen™) was used to analyse the non-apoptotic, and the early and late apoptotic cells. Staining was performed as per manufacturer's instructions. Analysis of Annexin staining was conducted using the blue/violet laser with excitation/emission spectra of 480/500 nm (20 mW) and the PI staining analysis was conducted using blue/red laser with an excitation/emission spectra of 490/635 nm.
Cultured HCLE cells were exposed to culture medium with or without carnitine (10 mM) at 300 mOsm (isotonic) and 500 mOsm (hyperosmotic) for 16 h. Flow cytometry was performed to determine the cell volume changes based on the forward and side scatter values detected.

For series [3], the system named is ICES-induced murine dry eye model. The series is described as follows: Corneal fluorescein staining in ICES-induced murine dry eye model. Type of series: in vivo, C57BL/6 mice. As to conditions: for corneal staining from Day 21 to Day 35: Schedule 2, within-group change. An excerpt: A total of 110 female C57BL/6 mice (age 4-6 weeks, from the Animal Breeding Unit of Wenzhou Medical College) were used in the study. These mice were carefully selected out of 350 mice by clinical examination using slit-lamp microscopy and corneal staining. Only those healthy mice with no corneal infections, infiltration or leukom, and with total scores of corneal fluorescein staining of less than 10, were selected for the study.
This study used the ICES-induced murine dry eye model in which relative humidity, airflow and temperature were maintained at 15.7±3.2% (mean±SD), 2.1±0.2 m/s and 21-24° C., respectively, and mice began developing dry eye conditions similar to those in humans from Day 21 post-housing (Chen et al A Murine Model of Dry Eye Induced by an Intelligently Controlled Environmental System. Investigative Ophthalmology & Visual Science, 2008: 49(4):1386-1391). The relative humidity and temperature of ICES systems were monitored daily.
Mice in different groups were labelled using ear marks. The mice were housed in cages (maximum of five animals per cage) and two independent cages were placed in each ICES system. Two schedules were used for topical administration of test compounds, Betaine (0.234% (10 mM) in sterile PBS) or Carnitine (0.25% (10 mM) in sterile PBS), or sterile PBS as a control. Mice without any topical treatment were used as another control. In the first schedule, compounds were administered to mice at the beginning of their housing in ICES (Schedule 1) to study the effect of these compounds on the development of dry eye. In the second schedule compound administration began after mice had been housed in ICES for 21 days (Schedule 2), by which time the dry eye condition had been developed (Chen et al. IOVS 2008), to study the effect of these compounds on treatment of dry eye. Compounds were administered topically to both eyes of the animal. The compound solution made in PBS was topically administered four times daily for up to a total of 35 days for Schedule 1, or 14 days for Schedule 2, during which the mice remained housed in ICES.
Four (4×) mice in each cage received individual treatment: A, B, C, D where A=Betaine (10 mM in PBS); B=Carnitine (10 mM in PBS); C=PBS only; D=No treatment.
The cornea was examined using slit-lamp microscopy with cobalt blue light immediately after fluorescein instillation. The stained area was assessed and graded using the 2007 Dry Eye Work Shop (DEW) recommended grading system. The mouse corneas were rated ranging from 0 to 4 with the cornea surface divided into five regions (0 dot, Grade 0; 1-5 dots, Grade 1; 6-15 dots, Grade 2; 16-30 dots, Grade 3; and […], Grade 4). The total score from the five regions was recorded.

For series [4], the system named is HCLE cells. The series is described as follows: Flow cytometry Annexin V/PI apoptosis/necrosis under hyperosmotic stress. It counts as cell-based, human. As to conditions: 16 h; for percentage of healthy cells (Annexin V and PI negative): 500 mOsm + 10 mM vs 500 mOsm; for total percentage of apoptotic and necrotic (damaged) cells: 500 mOsm + 10 mM, flow cytometry. The procedure: as §2, §1
It was observed that an osmolarity of 450 mOsM and 500 mOsM and exposure time of 16 hours was the most optimal for studying hyperosmolarity induced cellular responses of HCLE (results not shown). Therefore, a hyperosmolar medium of 450 mOsM and 500 mOsM and an exposure time of 16 hours were used throughout the study. The hyperosmolarity of the medium was achieved by addition of an appropriate amount of NaCl to it, and further measuring using Vapro 5520 vapor pressure osmometer (Wescor, Logan, Utah). Cells, having reached 70%-80% confluence were exposed to hyperosmolar media in the presence or absence of 10 mM L-Carnitine. Cellular shrinkage in relation to hyperosmotic stress, Annexin V/PI staining for apoptosis, Caspase activities and TNF-α production were analysed.
Cultured human corneal limbal epithelial (HCLE) cells were exposed to culture medium with or without carnitine (10 mM) at 300 mOsm (isotonic), 450 mOsm (moderate), and 500 mOsm (hyperosmotic) for 16 h. Induction of apoptosis was detected by quantification of the proteolytic activity of caspase-8, caspase-9, or caspase-3/7 using caspase activity assays, and production of tumor necrosis factor (TNF)-α, a known apoptosis inducer, using ELISA. Annexin V and Propidium iodine (PI) staining was performed to detect the percentage of apoptotic cells using confocal microscopy and flow cytometry.

[5] abbreviates: Schedule 1, Day 14, 10 mM in PBS topically four times daily.
Where [6] appears, read: Schedule 1, Day 21, 10 mM in PBS topically four times daily.

The record followed here is patent US10912752B2, “Methods and compositions for reducing ocular discomfort” (Brien Holden Vision Institute Limited, priority 2012, dated 2021).

Consider `C[N+](C)(C)CC(=O)[O-]` [betaine, trimethylglycine], for which the “effect on the final osmolarity of the medium” value in series [1] is reported as “minimal effect”. Also, the “percentage of healthy (normal volume) cells” value with HCLE cells [2] (500 mOsm + 10 mM vs 500 mOsm) is reported as “significantly increased”. Further, the “population of shrunken cells” value with HCLE cells [2] came out at 11.01%. Besides, the “corneal staining vs control C (PBS only) or D (no treatment)” value in series [3] (setting [5]) and in series [3] (setting [6]) was “statistically significant reduction” each time. The “corneal staining from Day 21 to Day 35” value in series [3] is given as “statistically significant reduction”. For the same compound, the “percentage of healthy cells (Annexin V and PI negative)” value in the series on HCLE cells [4] is given as “considerable increase”. The “total percentage of apoptotic and necrotic (damaged) cells” value in the series with HCLE cells [4] was 15.70%.
Take `C[N+](C)(C)CC(O)CC(=O)[O-]` (stereo not drawn) [carnitine, 3-hydroxy-4-(trimethylazaniumyl)butanoate]: the “population of shrunken cells” value was around 15% with HCLE cells [2] and 18.01% in the series on HCLE cells [2] (listed as L-Carnitine). In addition, the “corneal staining vs control C (PBS only) or D (no treatment)” value in series [3] (setting [5]) and in series [3] (setting [6]) was “statistically significant reduction” throughout. The “corneal staining vs control C or D” value in series [3] (Schedule 1, Day 35, 10 mM in PBS topically four times daily) is given as “reduced corneal staining”. Moreover, the “corneal staining vs controls C or D” value in series [3] (Schedule 2 (treatment from Day 22 after dry eye developed), Day 35) is listed as “statistically significant reduction”. Also, in series [3], the “corneal staining from Day 21 to Day 35” value is “statistically significant reduction”. Further, in the series with HCLE cells [4] (10 mM, 500 mOsm, vs hyperosmotically stressed HCLE), the “increase in the percentage of un-damaged (non-apoptotic/non-necrotic) cells” value was 63%. Also, in the series with HCLE cells [4], the “percentage of healthy cells (Annexin V and PI negative)” value is recorded as “increased”. Besides, the “total percentage of apoptotic and necrotic (damaged) cells” value in the series with HCLE cells [4] is around 19.0%.
